From patent publication US20210101874A1, “MICROBIOCIDAL OXADIAZOLE DERIVATIVES” (SYNGENTA PARTICIPATIONS AG, priority 2017, published 2021)

How the values were obtained:
[1] = tested on: Glomerella lagenarium (Colletotrichum lagenarium); test: Glomerella lagenarium (Colletotrichum lagenarium) liquid culture / cucumber / preventative (anthracnose); type: cell-based; settings: Colletotrichum orbiculare; 20 ppm in the applied formulation; conidia in PDB nutrient broth, 24° C.; 3 to 4 days after application; compared to untreated; read-out: disease control (inhibition of growth measured photometrically)
Method in brief: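 Test compound, diluted from DMSO, was mixed in microtiter wells with fungal conidia taken from cryogenic storage and suspended in PDB nutrient broth. After 3 to 4 days at 24 °C, photometric growth measurement gave antifungal activity as a percentage of the untreated control.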

[2] = tested on: Puccinia recondita f. sp. Tritici; test: Puccinia recondita f. sp. tritici / wheat / leaf disc curative (brown rust); type: in vivo; settings: foliar, 200 ppm in the applied formulation, wheat leaf segments cv. Kanzler, applied 1 day after inoculation, compared to untreated, assessed 6 to 8 days after application, read-out: disease control
Method in brief: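 Segments of wheat (cultivar Kanzler) sit on agar and are spore-inoculated first; after one day in darkness at 19° C and 75% RH the diluted formulated compound is sprayed on. A 12 h photoperiod follows at the same temperature and humidity before disease is scored against untreated controls.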

[3] = tested on: Puccinia recondita f. sp. Tritici; test: Puccinia recondita f. sp. tritici / wheat / leaf disc preventative (brown rust); type: in vivo; settings: foliar, 200 ppm in the applied formulation, wheat leaf segments cv. Kanzler, inoculated 1 day after application, compared to untreated, assessed 7 to 9 days after application, read-out: disease control
Method in brief: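 Wheat leaf segments (cv. Kanzler) on water agar were sprayed with test compound (DMSO stock diluted in 0.025% Tween20/water), then spore-inoculated 1 day later. Incubation at 19° C., 75% rh, 12 h light/12 h dark; percent disease control versus untreated segments scored 7 to 9 days after application. Tested at 200 ppm.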

[4] = tested on: Phakopsora pachyrhizi; test: Phakopsora pachyrhizi / soybean / leaf disc preventative (Asian soybean rust); type: in vivo; settings: foliar, 200 ppm in the applied formulation, soybean leaf disks, inoculated one day after application, compared to untreated, assessed 12 to 14 days after application, read-out: disease control
Description: Leaf disks or leaf segments of various plant species are cut from plants grown in a greenhouse. The cut leaf disks or segments are placed in multiwell plates (24-well format) onto water agar. The leaf disks are sprayed with a test solution before (preventative) or after (curative) inoculation. Compounds to be tested are prepared as DMSO solutions (max. 10 mg/ml) which are diluted to the appropriate concentration with 0.025% Tween20 just before spraying. The inoculated leaf disks or segments are incubated under defined conditions (temperature, relative humidity, light, etc.) according to the respective test system. A single evaluation of disease level is carried out 3 to 14 days after inoculation, depending on the pathosystem. Percent disease control relative to the untreated check leaf disks or segments is then calculated.
Soybean leaf disks are placed on water agar in multiwell plates (24-well format) and sprayed with the formulated test compound diluted in water. One day after application leaf discs are inoculated by spraying a spore suspension on the lower leaf surface. After an incubation period in a climate cabinet of 24-36 hours in darkness at 20° C. and 75% rh leaf disc are kept at 20° C. with 12 h light/day and 75% rh. The activity of a compound is assessed as percent disease control compared to untreated when an appropriate level of disease damage appears in untreated check leaf disks (12 to 14 days after application).
The following compounds at 200 ppm in the applied formulation give at least 80% disease control in this test when compared to untreated control leaf disks under the same conditions, which show extensive disease development.

SMILES	inhibition at 20 ppm [1]	pest or weed control at 200 ppm [2]	pest or weed control at 200 ppm [3]	melting point	pest or weed control at 200 ppm [4]
CS(=O)(=O)N(Cc1ccc(-c2noc(C(F)(F)F)n2)cc1)C1CC1 [Compound 1.8, N-cyclopropyl-N-[[4-[5-(trifluoromethyl)-1,2,4-oxadiazol-3-yl]phenyl]methyl] methanesulfonamide]	≥ 80%	≥ 80%	≥ 80%	84 to 86 °C	≥ 80%
COCCS(=O)(=O)NCc1ccc(-c2noc(C(F)(F)F)n2)cc1 [Compound 2.1, 2-methoxy-N-[[4-[5-(trifluoromethyl)-1,2,4-oxadiazol-3-yl]phenyl]methyl] ethanesulfon-amide]	≥ 80%	≥ 80%	≥ 80%	97 to 100 °C	≥ 80%
CCNS(=O)(=O)N(Cc1ccc(-c2noc(C(F)(F)F)n2)cc1)C1CC1 [Compound 1.17, 3-[4-[[cyclopropyl (ethylsulfamoyl)amino]methyl]phenyl]-5-(trifluoromethyl)-1,2,4-oxadiazole]	≥ 80%	≥ 80%	≥ 80%	108 to 110 °C	≥ 80%
CCN(Cc1ccc(-c2noc(C(F)(F)F)n2)cc1F)S(C)(=O)=O [Compound 1.103, N-ethyl-N-[[2-fluoro-4-[5-(trifluoromethyl)-1,2,4-oxadiazol-3-yl]phenyl]methyl] methanesulfonamide]	≥ 80%	≥ 80%	≥ 80%	90 to 93 °C	≥ 80%
CCS(=O)(=O)N(Cc1ccc(-c2noc(C(F)(F)F)n2)cc1)C1CC1 [Compound 1.1, N-cyclopropyl-N-[[4-[5-(trifluoromethyl)-1,2,4-oxadiazol-3-yl]phenyl]methyl] ethanesulfonamide]	≥ 80%	≥ 80%	≥ 80%	86 to 88 °C	≥ 80%
CN(Cc1ccc(-c2noc(C(F)(F)F)n2)cc1)S(=O)(=O)N1CCOCC1 [Compound 1.15, N-methyl-N-[[4-[5-(trifluoromethyl)-1,2,4-oxadiazol-3-yl]phenyl]methyl] morpholine-4-sulfonamide]	≥ 80%	≥ 80%	≥ 80%	118 to 120 °C	≥ 80%
CCNS(=O)(=O)N(C)Cc1ccc(-c2noc(C(F)(F)F)n2)cc1 [Compound 1.16, 3-[4-[[ethylsulfamoyl (methyl)amino]methyl]phenyl]-5-(trifluoromethyl)-1,2,4-oxadiazole]	≥ 80%	≥ 80%	≥ 80%	63 to 66 °C	≥ 80%
CN(Cc1ccc(-c2noc(C(F)(F)F)n2)cc1)S(=O)(=O)C1CC1 [Compound 1.10, N-methyl-N-[[4-[5-(trifluoromethyl)-1,2,4-oxadiazol-3-yl]phenyl]methyl] cyclopropanesulfonamide]	≥ 80%	≥ 80%	≥ 80%	102 to 105 °C	≥ 80%
CCN(Cc1ccc(-c2noc(C(F)(F)F)n2)c(F)c1F)S(C)(=O)=O [Compound 1.104, N-[[2,3-difluoro-4-[5-(trifluoromethyl)-1,2,4-oxadiazol-3-yl]phenyl]methyl]-N-ethyl-methanesulfonamide]	≥ 80%	≥ 80%	≥ 80%	81 to 93 °C	≥ 80%
